Results published in US20090281054A1, “COMPOSITIONS AND METHODS COMPRISING CAPURAMYCIN ANALOGUES” (priority 2008, published 2009).
Values after ≈ are worked out from the molar mass of the structure shown. Values joined by “and” are separate entries in the source; they are usually repeats but may differ in a detail not shown here. Equal values may be shown once. Read-outs that look alike come from different tables or passages of the source.

Tests used:
MTB H37Rv = test: MIC by broth microdilution; assay type: cell-based; conditions: Mycobacterium tuberculosis
Experimental: (§1) The SQ997 amino acid derivatives shown in Table 2 were tested for in vitro activity against MTB, cytotoxicity for uninfected J774 cells to determine IC50, and for intracellular activity in the macrophage assay (Table 15). […] Cell viability remained similar to SQ997, or slightly better as cell morphologic changes were reduced.

in vitro = assay type: cell-based; conditions: mouse
Experimental: as §1

MAC = test: Synergy by checkerboard titration (microdilution); assay type: cell-based, M. avium complex; conditions: for MIC Combination: combination SQ641 + EMB; for MIC: Mycobacterium avium, drug alone
[1] = test system: M. abscessus (MAB; ATCC 700869); test: MIC by microdilution method in 7H9 broth; assay type: cell-based; conditions: MAB 700869
M. smegmatis = test: Synergy by checkerboard titration (microdilution); assay type: cell-based; conditions: M. smegmatis; for MIC: Mycolicibacterium smegmatis, drug alone
M. avium complex (MAC) = test: MIC by microdilution method in 7H9 broth; assay type: cell-based; conditions: for MIC90: value in square brackets
[2] = test system: M. smegmatis (MSMG; MC2155); test: MIC by microdilution method in 7H9 broth; assay type: cell-based; conditions: MSMG MC^2155, 72 hr
[3] = test system: M. kansaii (MKN; ATCC12478 & 35775); test: MIC by microdilution method in 7H9 broth; assay type: cell-based, M. kansasii
[4] = test system: MTB-pSMT1 luciferase reporter strain; test: Activity against slowly replicating (hypoxic) MTB; assay type: cell-based; conditions: Mycobacterium tuberculosis
M. abscessus = test: Synergy by checkerboard titration (microdilution); assay type: cell-based
MTB in J774 cells = test: Intracellular activity of amino acid conjugates; assay type: cell-based, Mycobacterium tuberculosis; conditions: day 0 RLU 775, Control day 7 31700
Experimental: The amino acid conjugates were tested at concentrations of 4 mg/mL and 8 mg/mL compared with a control and isoniazid (INH).
The intracellular activity against MTB by capuramycin amino acid derivatives was tested. Cells J774 were infected with MTB and treated for 7 days with the amino acid derivative. The mean Relative Light Unites (RLU), an estimation of bacterial viability, was measured as described in Snewin et al., Infect. Immun., 1999, 67(9), 4586-4593).

MTB = assay type: in vivo, mouse; conditions: IP, 250 mg/kg, 2 weeks treatment
MTB in macrophages = assay type: cell-based, Mycobacterium tuberculosis
[5] = Mycobacteroides abscessus, ATCC700869, read-out: MIC
[6] = Mycolicibacterium smegmatis, MC2155|MC^2155, read-out: MIC
[7] = Mycobacterium kansasii, ATCC 12478 / ATCC 35775, MKN ATCC35775, read-out: MIC
[8] = Mycobacterium kansasii, MKN ATCC12478, read-out: MIC

Compound: CO[C@H]1[C@@H](OC(=O)CCCCCCCN)[C@H](N2C=CC(=O)NC2)O[C@@H]1[C@@H](OC1OC(C(=O)N[C@H]2CCC[C@@H](C)NC2=O)=C[C@H](O)[C@@H]1O)C(N)=O (stereo partly drawn) [997-aminooctanoic acid]
- MIC (MTB H37Rv): 8 µg/mL (≈ 11.3 µM)
- IC50 (in vitro): > 32 µg/mL

Compound: CO[C@H]1[C@@H](OC(=O)CCCCCCCCCCN)[C@H](N2C=CC(=O)NC2)O[C@@H]1[C@@H](OC1OC(C(=O)N[C@H]2CCC[C@@H](C)NC2=O)=C[C@H](O)[C@@H]1O)C(N)=O (stereo partly drawn) [997-aminoundecanoic acid]
- MIC (MTB H37Rv): 2 µg/mL (≈ 2.66 µM)
- IC50 (in vitro): 32 µg/mL (≈ 42.5 µM)

Compound: CO[C@H]1[C@@H](OC(=O)c2ccncc2)[C@H](N2C=CC(=O)NC2)O[C@@H]1[C@@H](OC1OC(C(=O)N[C@H]2CCC[C@@H](C)NC2=O)=C[C@H](O)[C@@H]1O)C(N)=O (stereo partly drawn) [997-isonicotinic acid]
- MIC (MTB H37Rv): 4 µg/mL (≈ 5.93 µM)
- IC50 (in vitro): > 32 µg/mL

Compound: CO[C@H]1[C@@H](OC(=O)C2CCNCC2)[C@H](N2C=CC(=O)NC2)O[C@@H]1[C@@H](OC1OC(C(=O)N[C@H]2CCC[C@@H](C)NC2=O)=C[C@H](O)[C@@H]1O)C(N)=O (stereo partly drawn) [997-isonipecotic acid]
- MIC (MTB H37Rv): 8 µg/mL (≈ 11.8 µM)
- IC50 (in vitro): > 32 µg/mL

Compound: CO[C@H]1[C@@H](OC(=O)[C@H](N)C(C)C)[C@H](N2C=CC(=O)NC2)O[C@@H]1[C@@H](OC1OC(C(=O)N[C@H]2CCC[C@@H](C)NC2=O)=C[C@H](O)[C@@H]1O)C(N)=O (stereo partly drawn) [Compound 997-D-Val]
- MIC (MTB H37Rv): 12.5 µg/mL (≈ 18.7 µM)
- IC50 (in vitro): > 32 µg/mL

Compound: CO[C@H]1[C@@H](OC(=O)[C@@H](N)C(C)C)[C@H](N2C=CC(=O)NC2)O[C@@H]1[C@@H](OC1OC(C(=O)N[C@H]2CCC[C@@H](C)NC2=O)=C[C@H](O)[C@@H]1O)C(N)=O (stereo partly drawn) [Compound 997-L-Val]
- MIC (MTB H37Rv): 12.5 µg/mL (≈ 18.7 µM)
- IC50 (in vitro): > 32 µg/mL

Compound: CC[C@@H](CO)NCCN[C@@H](CC)CO [EMB, ethambutol, reference compound]
- MIC Combination (MAC; MAC A5): 0.062 µg/mL
- MIC Combination (MAC; MAC JSH1): 8.0 µg/mL
- MIC Combination (MAC; MAC NIH C1-1): 2.0 µg/mL
- MIC (MAC; MAC A5): 1 µg/mL
- MIC (MAC; MAC JSH1): 32 µg/mL
- MIC (MAC; MAC NIH C1-1): 8 µg/mL
- MIC [1, 5]: > 32 µg/mL
- MIC Combination (M. smegmatis; combination SQ641 + EMB): 0.12 µg/mL
- MIC (M. smegmatis): 0.5 µg/mL
- MIC (M. avium complex (MAC); Mycobacterium avium, 336 h, MAC isolates, 2 wk, read-out: MIC (range)): 0.5 to 32 µg/mL (≈ 2.45 to 157 µM)
- MIC (M. avium complex (MAC); Mycobacterium avium, MAC strain 100, read-out: MIC): 4 µg/mL (≈ 19.6 µM)
- MIC (M. avium complex (MAC); Mycobacterium avium, MAC strain 101, read-out: MIC): 1 µg/mL (≈ 4.89 µM)
- MIC (M. avium complex (MAC); Mycobacterium avium, MAC strain 104, read-out: MIC): 2 µg/mL (≈ 9.79 µM)
- MIC (M. avium complex (MAC); Mycobacterium avium, MAC strain 109, read-out: MIC): 0.5 µg/mL (≈ 2.45 µM)
- MIC (M. avium complex (MAC); Mycobacterium avium, MAC strain A5, read-out: MIC): 1 µg/mL (≈ 4.89 µM)
- MIC (M. avium complex (MAC); Mycobacterium avium, MAC strain JSH1, read-out: MIC): 16 µg/mL (≈ 78.3 µM)
- MIC (M. avium complex (MAC); Mycobacterium avium, MAC strain NIH C1-1, read-out: MIC): 4 µg/mL (≈ 19.6 µM)
- MIC (M. avium complex (MAC); Mycobacterium avium, MAC strain NIH C1-2, read-out: MIC): 2 µg/mL (≈ 9.79 µM)
- MIC (M. avium complex (MAC); Mycobacterium avium, MAC strain NIH C1-3, read-out: MIC): 32 µg/mL (≈ 157 µM)
- MIC (M. avium complex (MAC); Mycobacterium avium, MAC strain NIH C1-4, read-out: MIC): 2 µg/mL (≈ 9.79 µM)
- MIC90 (M. avium complex (MAC); Mycobacterium avium, MAC isolates, read-out: MIC90): 16 µg/mL (≈ 78.3 µM)
- MIC [2, 6]: 0.5 µg/mL (≈ 2.45 µM)
- MIC [3, 7]: 1 µg/mL (≈ 4.89 µM)
- MIC [3, 8]: 2 µg/mL (≈ 9.79 µM)
- MIC [4]: 2 µg/mL (≈ 9.79 µM)
- MIC ([4]; Hypoxic, […]): 32 µg/mL (≈ 157 µM)

Compound: CO[C@H]1/C=C/O[C@@]2(C)Oc3c(C)c(O)c4c(c3C2=O)C2=NC3(CCN(CC(C)C)CC3)NC2=C(NC(=O)/C(C)=C\C=C\[C@H](C)[C@H](O)[C@@H](C)[C@@H](O)[C@@H](C)[C@H](OC(C)=O)[C@@H]1C)C4=O [RFB, reference compound]
- MIC [1]: 2 µg/mL (≈ 2.36 µM)
- MIC range (M. avium complex (MAC); MAC isolates, 2 wk): 0.0078 to 0.125 µg/mL
- MIC90 (M. avium complex (MAC); MAC isolates): 0.062 µg/mL (≈ 0.0732 µM)
- MIC [2]: 0.25 µg/mL (≈ 0.295 µM)
- MIC ([3]; MKN ATCC12478): ≦0.0039 μg/ml
- MIC ([3]; MKN ATCC35775): ≦0.031 μg/ml
- MIC Combination (M. abscessus; combination SQ641 + RFB): 0.25 µg/mL
- MIC Alone (M. abscessus; drug alone): 2.0 µg/mL

Compound: [H]/N=C(/N)N[C@H]1[C@H](O)[C@@H](O)[C@H](O[C@@H]2O[C@@H](C)[C@](O)(C=O)[C@H]2O[C@@H]2O[C@@H](CO)[C@H](O)[C@@H](O)[C@@H]2NC)[C@@H](N/C(N)=N\[H])[C@@H]1O [SM, streptomycin, reference compound]
- MIC [1, 5]: 8 µg/mL (≈ 13.8 µM)
- MIC Combination (M. smegmatis; combination SQ641 + SM): 0.25 µg/mL
- MIC (M. smegmatis): 0.5 µg/mL
- MIC [2, 6]: 0.5 µg/mL (≈ 0.86 µM)
- MIC [3, 7]: 2 µg/mL (≈ 3.44 µM)
- MIC [3, 8]: > 32 µg/mL
- MIC (M. abscessus; Mycobacteroides abscessus, drug alone): 8 µg/mL
- MIC Combination (M. abscessus; combination SQ641 + SM): 2.0 µg/mL
- MIC [4]: 0.25 µg/mL (≈ 0.43 µM)
- MIC ([4]; Hypoxic, […]): 1 µg/mL (≈ 1.72 µM)

Compound: CCCCCCCCCC(=O)O[C@@H]1[C@H](OC)[C@@H]([C@@H](OC2OC(C(=O)N[C@H]3CCC[C@@H](C)NC3=O)=C[C@H](OC(=O)CCOCCOCCOCCOCCN)[C@@H]2OC(=O)CCOCCOCCOCCOCCN)C(N)=O)O[C@H]1n1ccc(=O)[nH]c1=O (stereo partly drawn) [SQ641-2topdec]
- Mean RLU on day 7 (MTB in J774 cells; 4 μg/ml): 4354 RLU
- Mean RLU on day 7 (MTB in J774 cells; 8 μg/ml): 2903 RLU

Compound: CCCCCCCCCC(=O)O[C@@H]1[C@H](OC)[C@@H]([C@@H](OC2OC(C(=O)N[C@H]3CCC[C@@H](C)NC3=O)=C[C@H](OC(=O)CCCCCCCCCCN)[C@@H]2O)C(N)=O)O[C@H]1n1ccc(=O)[nH]c1=O (stereo partly drawn) [SQ641-aua]
- Mean RLU on day 7 (MTB in J774 cells; 4 μg/ml): 3163 RLU
- Mean RLU on day 7 (MTB in J774 cells; 8 μg/ml): 372 RLU

Compound: CCCCCCCCCC(=O)O[C@@H]1[C@H](OC)[C@@H]([C@@H](OC2OC(C(=O)N[C@H]3CCC[C@@H](C)NC3=O)=C[C@H](OC(=O)CCOCCOCCOCCOCCN)[C@@H]2O)C(N)=O)O[C@H]1n1ccc(=O)[nH]c1=O (stereo partly drawn) [SQ641-topdec]
- Mean RLU on day 7 (MTB in J774 cells; 4 μg/ml): 3368 RLU
- Mean RLU on day 7 (MTB in J774 cells; 8 μg/ml): 2143 RLU

Compound: D-alpha-tocopheryl poly(ethylene glycol) 1000 succinate [TPGS]
- Lung CFU ± SD (MTB; Control 3.8 ± 1.9 × 10^8): 3.0 ± 1.3 × 10^8 CFU
- Lung Log CFU (MTB; Control 8.58): 8.48 Log CFU
- Effect of TPGS alone on MTB growth in macrophages (MTB in macrophages): increased MTB growth
- Mean RLU on day 7 (MTB in macrophages): 13903 RLU and 14595 RLU and 13942 RLU
